Measured values from patent US4535081A, “Antiallergic and antiulcer 1-oxo-1H-thiazolo[3,2-a]pyrimidine-2-carboxamides and intermediates therefor” (Pfizer Inc., priority 1983, dated 1985).

Key:
[1] = system: glucose tolerance; assay: Glucose tolerance in rats; type: in vivo, rat; conditions: 10, 30, or 100 mg/kg p.o. with glucose 1 g/kg p.o.
Excerpt: This effect may be due to a delayed absorption of glucose related to a possible effect on gastric emptying.

[2] = system: pentagastrin-stimulated acid output; assay: Pentagastrin-stimulated acid output in Heidenhain pouch dogs; type: in vivo, dog; conditions: 5 mg/kg, i.v.
[3] = system: blood pressure, heart rate and pressor responses; assay: Cardiovascular effects in anesthetized dogs; type: in vivo, dog; conditions: cumulative 5 and 15 mg/kg, i.v.
[4] = Cardiovascular effects in anesthetized dogs; type: in vivo, dog; conditions: dog, in vivo; cumulative intravenous doses; read-out: ratio of cardiovascular-effect dose to maximally effective intravenous antiallergy dose
[5] = system: IgE (reaginic antiserum) PCA reaction; assay: Oral activity in PCA test, IgE; type: in vivo, rat
Method: The antiallergy property of the compounds of this invention is evaluated by the passive cutaneous anaphylaxis (PCA) test (Ovary, J. Immun., 81, 355, 1958). In the PCA test, normal animals are injected intradermally (i.d.) with antibodies contained in serum obtained from actively sensitized animals. The animals are then challenged intravenously with antigen mixed with a dye such as Evans' Blue. The increased capillary permeability caused by the antigen-antibody reaction causes the dye to leak from the site of the antibody injection. The test animals are then asphyxiated and the intensity of the reaction determined by measuring the diameter and intensity of the blue coloration on the inner surface of the animals' skin.
The PCA test is a measure of the anti-allergic (especially anti-asthmatic) activity of a compound. Compounds which inhibit a positive PCA test induced by the rat immunochemical counterpart of human immunoglobulin E (IgE), or reagin, are considered to have anti-allergic activity (C. Mota, Ann. N.Y. Acad. Sci., 103, 264 1963). (Reagin is primarily immunoglobulin E [IgE] and is the principal immunoglobulin responsible for allergic asthma, anaphylaxis, hay fever, food sensitivities and certain manifestations of drug sensitivities, although recent evidence ascribes to the IgG class of antibodies a significant role in the mediation of allergic diseases). Such compounds when administered to a sensitized subject, human or animal, prior to the time when the subject comes into contact with antigens or substances to which it is allergic, will prevent the allergic reaction which would otherwise occur. They, therefore, provide a method for the prophylactic treatment of allergy or anaphylactic reactions of a reagin mediated nature.
To put it another way, such compounds block the release of mediators resulting from the antigen-antibody (allergic) reaction as illustrated in the PCA test using rat homocytotropic antibody--a known correlate of human reaginic antibody. Inhibition of reaginic antigen-antibody reactions in rats, the test animal of the PCA test, is regarded as representative of inhibition of human reaginic antigen-antibody reactions which occur during allergic episodes.
The ability of agents to interfere with PCA reactions is measured in male Charles River Wistar rats, 170-210 g. Reaginic antiserum, rich in IgE antibodies, is prepared according to Petillo et al., Int. Arch. Allergy, 44, 309 (1973). Hyperimmune antiserum rich in IgG antibodies to hen egg albumin is prepared according to Orange et al., J. Exptl. Med., 127, 767 (1968). Forty-eight hours prior to antigen challenge, the reaginic antiserum is injected intradermally (i.d.) into the shaved skin of a normal rat's back; 5 hours before challenge the hyperimmune antisera is similarly injected. At a third site 60 mcg. histamine dihydrochloride and 0.5 mcg. serotonin creatinine sulfate are injected i.d. just prior to antigen challenge as a check for antihistaminic, antiserotonin and unspecific types of blockage; the compounds of the instant invention or saline are then administered i.v. and immediately followed by the challenge of 5 mg. egg albumen and 2.5 mg. Evans' Blue dye in saline. In the case of oral administration Evans' Blue dye and egg albumin are given 5 minutes after administration of the drug. Thirty minutes later the animals are asphyxiated using chloroform and the skin of the back removed and reversed for observation. A score is assigned each injection site equal to the product of the diameter of the site in mm. and a grade of 0.1, 0.5, 1, 2, 3 or 4 proportional to intensity of dye coloration. The scores for a given injection site are summed for each group of five animals and compared to the saline treated controls. The difference is expressed as percent blockage due to the compound employed. […]

[6] = system: rats; assay: Oral toleration, 10 days, rats; type: in vivo, rat; conditions: 10 days, 50, 150 and 300 mg/kg/day
Method: Rats were given III orally by gavage at doses of 50, 150 and 300 mg/kg/day for 10 days.

[7] = system: ulcerogenic effects of aspirin; assay: Protection against ulcerogenic effects of aspirin; type: in vivo; conditions: p.o.; aspirin 100 mg/kg p.o.
Method: Compound III also protects against the ulcerogenic effects of aspirin, 100 mg/kg p.o. where dose-related effects are seen over the dose range of 10 to 1000 μg/kg, p.o. with an ED50 of 100 μg/kg. Compound III is also active in a phenylbutazone gastric ulcer model where an oral ED50 of 200 μg/kg is observed. […] "Cytoprotective," a term coined recently to describe the antiulcer effects of prostaglandins that are independent of antisecretory activity, [Robert, Advances in Prostaglandin and Thromboxane Research 2, 507 (1976); Miller et al., Gut 20, 75 (1979); Robert et al., Gastroenterology 72, 1121 (1977).] aptly characterizes the effects of compound III.

[8] = system: serum enzyme levels; assay: Serum enzyme levels, intravenous five days, dogs; type: in vivo, dog; conditions: five days, 1, 3, 10, 3 and 3 mg/kg
[9] = system: isolated guinea pig ileum (acetylcholine); assay: Isolated ileum spasm, acetylcholine; conditions: 10^-8 to 10^-4 M
[10] = system: isolated guinea pig ileum (histamine); assay: Isolated ileum spasm, histamine; conditions: 10^-8 to 10^-4 M
[11] = Oral absorption and plasma concentrations, rats; type: in vivo, rat
Method: This is supported by the observations of plasma concentrations of 3 to 7 μg/ml one hour after oral administration of III, 50 to 300 mg/kg.

[12] = system: dogs; assay: Toleration study, oral, seven days, dogs; type: in vivo, dog
Method: In toleration studies, III were given orally by gavage to dogs for a period of seven days at doses of 50, 150 and 300 mg/kg/day.

[13] = oral, 7 days, 50, 150 and 300 mg/kg/day

SMILES: O=C(Nc1nnn[nH]1)c1cnc2sc3c(n2c1=O)CCCC3 [Compound III, N-(5-Tetrazolyl)-1-oxo-1H-cyclohexenothiazolo[3,2-a]pyrimidine-2-carboxamide]
- glucose tolerance [1]: apparent dose-dependent improvement in glucose tolerance
- pentagastrin-stimulated acid output [2]: does not affect pentagastrin-stimulated acid output
- blood pressure [3]: transient hypotension
- heart rate [3]: variable changes in heart rate
- pressor responses to epinephrine and bilateral carotid occlusion [3]: diminished slightly
- selectivity ratio [4]: 5 to 15
- inhibition in vivo at 3 mg/kg ([5]; Rattus norvegicus, IgE, oral, 3 mg./kg., read-out: Oral Activity (% of Protection) in the PCA Test, IgE): 47%
- oral activity ([5]; oral): excellent oral activity
- dose range for antiallergy effects ([5]; rat, in vivo): 1 to 10 mg/kg
- pathological changes, gross and microscopic (liver, kidney, heart, lung) ([6]; oral gavage): no resultant pathological changes
- clinical chemistry apart from serum glutamic-pyruvic transaminase ([6]; oral): no changes in clinical chemistry were observed
- dose range of dose-related effects, aspirin ulcer [7]: 0.01 to 1 mg/kg
- serum enzyme levels [8]: remained normal
- antagonism of spasm of isolated guinea pig ileum [9]: does not antagonize spasms
- antagonism of spasm of isolated guinea pig ileum [10]: does not antagonize spasms
- plasma concentration ([11]; one hour after oral 50 to 300 mg/kg, 60 min): 3000 to 7000 ng/mL
- oral absorption ([11]; ratio of comparably effective oral and intravenous doses, PCA test): good oral absorption
- emetic effect, capsule after meals ([12]; capsule after, rather than before, meals): could be eliminated
- gross pathological changes [12, 13]: No gross pathological changes were observed
- microscopic examination of liver, kidney, heart and lung [12, 13]: did not reveal any changes
